Our source for the IC50 values is patent publication US9056874B2, “Complement pathway modulators and uses thereof” (NOVARTIS AG, priority 2012, dated 2015).

In this experiment the target is factor B (Homo sapiens, UniProt P00751). In words: factor B inhibition assay of Biological Example 1. The settings on record: IC50 (nM), assay of Biological Example 1 (Table 1). It counts as biochemical. On the set-up: CVF-Bb complex prepared from purified cobra venom factor (1 μM), recombinant human complement factor B; made in house; host or cells: drosophila cells (factor B); E. coli (factor D used to form the complex).
Sequence of factor B (P00751 260-764 limits assumed): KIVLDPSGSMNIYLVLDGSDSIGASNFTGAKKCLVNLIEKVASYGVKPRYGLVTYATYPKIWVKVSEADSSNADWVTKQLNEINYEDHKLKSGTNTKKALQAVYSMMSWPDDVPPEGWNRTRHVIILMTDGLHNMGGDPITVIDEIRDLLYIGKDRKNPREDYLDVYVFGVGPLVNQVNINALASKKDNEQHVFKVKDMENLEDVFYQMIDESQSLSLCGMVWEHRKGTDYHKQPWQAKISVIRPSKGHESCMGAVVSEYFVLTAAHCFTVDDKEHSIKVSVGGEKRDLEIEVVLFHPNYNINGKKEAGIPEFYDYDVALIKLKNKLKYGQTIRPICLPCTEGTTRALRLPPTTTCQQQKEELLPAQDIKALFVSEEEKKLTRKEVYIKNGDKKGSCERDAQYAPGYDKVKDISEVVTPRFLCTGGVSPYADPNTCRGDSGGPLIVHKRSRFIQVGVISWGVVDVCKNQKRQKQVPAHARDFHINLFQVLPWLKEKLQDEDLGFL
Sequence of factor B (Q91132 23-649 partner limits assumed): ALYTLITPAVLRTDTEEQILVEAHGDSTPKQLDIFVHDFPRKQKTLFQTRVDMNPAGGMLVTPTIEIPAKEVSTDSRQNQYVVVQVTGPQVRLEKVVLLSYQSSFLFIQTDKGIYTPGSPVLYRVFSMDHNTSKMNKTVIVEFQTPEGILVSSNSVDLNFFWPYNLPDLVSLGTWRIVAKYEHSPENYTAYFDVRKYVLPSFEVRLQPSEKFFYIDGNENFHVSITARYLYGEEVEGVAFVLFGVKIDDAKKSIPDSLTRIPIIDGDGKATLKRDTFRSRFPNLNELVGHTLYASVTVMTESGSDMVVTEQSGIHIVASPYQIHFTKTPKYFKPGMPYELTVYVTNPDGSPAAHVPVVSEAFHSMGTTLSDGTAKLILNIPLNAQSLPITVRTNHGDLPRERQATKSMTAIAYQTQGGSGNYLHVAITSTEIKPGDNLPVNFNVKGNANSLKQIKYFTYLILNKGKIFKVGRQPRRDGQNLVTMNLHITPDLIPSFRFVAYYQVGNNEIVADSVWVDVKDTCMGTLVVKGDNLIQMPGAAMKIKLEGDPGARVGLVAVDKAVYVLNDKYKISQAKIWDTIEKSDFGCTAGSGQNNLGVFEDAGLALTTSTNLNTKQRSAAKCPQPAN
Sequence of factor B (Q91132 733-984 partner limits assumed): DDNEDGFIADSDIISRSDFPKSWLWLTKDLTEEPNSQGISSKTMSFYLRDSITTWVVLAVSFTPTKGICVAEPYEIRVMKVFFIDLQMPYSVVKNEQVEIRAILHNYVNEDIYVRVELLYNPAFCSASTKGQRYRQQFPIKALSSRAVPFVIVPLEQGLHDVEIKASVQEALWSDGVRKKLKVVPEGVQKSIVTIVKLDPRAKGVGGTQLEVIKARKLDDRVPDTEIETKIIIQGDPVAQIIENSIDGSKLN
Sequence of factor B (Q91132 1264-1642 partner limits assumed): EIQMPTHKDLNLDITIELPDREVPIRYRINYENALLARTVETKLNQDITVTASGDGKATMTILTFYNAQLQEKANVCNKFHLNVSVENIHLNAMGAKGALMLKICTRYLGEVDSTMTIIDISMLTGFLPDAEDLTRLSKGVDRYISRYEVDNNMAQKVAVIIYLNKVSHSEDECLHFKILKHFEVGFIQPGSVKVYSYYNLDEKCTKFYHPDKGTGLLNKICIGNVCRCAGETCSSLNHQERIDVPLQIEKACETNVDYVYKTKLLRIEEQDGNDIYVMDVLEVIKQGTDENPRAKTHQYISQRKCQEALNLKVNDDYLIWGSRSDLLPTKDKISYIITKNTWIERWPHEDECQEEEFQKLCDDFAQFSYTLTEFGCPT
Take `CNC(=O)c1cc(C)c2[nH]ccc2c1C(O)(c1nc2cc(C#N)ccc2[nH]1)C(F)(F)F` (racemic) [Example 82, (±)-4-(1-(5-cyano-1H-benzo[d]imidazol-2-yl)-2,2,2-trifluoro-1-hydroxyethyl)-N,7-dimethyl-1H-indole-5-carboxamide]: the IC50 (commonly the concentration that gives 50% inhibition) was 71900 nM.

`Cc1cc(C(F)(F)F)c(C(C)(O)c2nc3cc(C#N)ccc3[nH]2)c2cc[nH]c12` (racemic) [Example 83-B, (±)-2-(1-hydroxy-1-(7-methyl-5-(trifluoromethyl)-1H-indol-4-yl)ethyl)-1H-benzo[d]imidazole-5-carbonitrile]: the IC50 worked out at 1440 nM.

Take `CCc1cc(C)c2[nH]cc(Cl)c2c1C(O)c1nc2cc(C#N)ccc2[nH]1` (racemic) [Example 87, (±)-2-((3-Chloro-5-ethyl-7-methyl-1H-indol-4-yl)(hydroxy)methyl)-1H-benzo[d]imidazole-5-carbonitrile]: the IC50 stood at 380 nM.

For the compound `Cc1cc(C)c2[nH]cc(C)c2c1C(O)c1nc2cc(C#N)ccc2[nH]1` (racemic) [Example 89-D, (±)-2-(Hydroxy(3,5,7-trimethyl-1H-indol-4-yl)methyl)-1H-benzo[d]imidazole-5-carbonitrile], the IC50 was 2320 nM.

In the case of `CCc1cc(C)c2[nH]cc(C(O)C(F)(F)F)c2c1Cc1nc2cc(C#N)ccc2[nH]1` (racemic) [Example 92-B, (±)-2-((5-Ethyl-7-methyl-3-(2,2,2-trifluoro-1-hydroxyethyl)-1H-indol-4-yl)methyl)-1H-benzo[d]imidazole-5-carbonitrile], the half-inhibitory concentration (IC50) was found to be 9750 nM.

For the compound `CNC(c1nc2cc(C#N)ccc2[nH]1)c1c(C)cc(C)c2[nH]ccc12` (racemic) [Example 98-B, (±)-2-((5,7-Dimethyl-1H-indol-4-yl)(methylamino)methyl)-1H-benzo[d]imidazole-5-carbonitrile], the IC50 was found to be 560 nM.

On to `Cc1cc(C)c2[nH]ccc2c1C(NS(C)(=O)=O)c1nc2cc(C#N)ccc2[nH]1` (racemic) [Example 99-B, (±)-N-((5-cyano-1H-benzo[d]imidazol-2-yl)(5,7-dimethyl-1H-indol-4-yl)methyl)methanesulfonamide], for which the IC50 was 750 nM.

With `CC(=O)NC(c1nc2cc(C#N)ccc2[nH]1)c1c(C)cc(C)c2[nH]ccc12` (racemic) [Example 100, (±)-N-((5-cyano-1H-benzo[d]imidazol-2-yl)(5,7-dimethyl-1H-indol-4-yl)methyl)acetamide], the IC50 was determined as 1120 nM.

In the case of `CNC(C)(c1nc2cc(C#N)ccc2[nH]1)c1c(C)cc(C)c2[nH]ccc12` (racemic) [Example 103-E, (±)-2-(1-(5,7-Dimethyl-1H-indol-4-yl)-1-(methylamino)ethyl)-1H-benzo[d]imidazole-5-carbonitrile], the concentration for half-maximal inhibition (IC50) came out at 50 nM.

With `Cc1cc(C)c2[nH]ccc2c1C(C)(c1nc2cc(C#N)ccc2[nH]1)N(C)C` (racemic) [Example 104-B, (±)-2-(1-(5,7-dimethyl-1H-indol-4-yl)-1-(dimethylamino)ethyl)-1H-benzo[d]imidazole-5-carbonitrile], the IC50 stood at 260 nM.

Turning to `Cc1cc(C)c2[nH]ccc2c1C(CO)c1nc2cc(C#N)ccc2[nH]1` (racemic) [Example 108-E, (±)-2-(1-(5,7-Dimethyl-1H-indol-4-yl)-2-hydroxyethyl)-1H-benzo[d]imidazole-5-carbonitrile], the IC50 came out at 80 nM.

As for `CCc1cc(C)c2[nH]ccc2c1C(OCC(=O)O)(c1nc2cc(C#N)ccc2[nH]1)C(F)(F)F` (racemic) [Example 109-B, (±)-2-(1-(5-cyano-1H-benzo[d]imidazol-2-yl)-1-(5-ethyl-7-methyl-1H-indol-4-yl)-2,2,2-trifluoroethoxy)acetic acid], the 50% inhibitory concentration (IC50) was 30 nM.

`CCc1cc(C)c2[nH]cc(-c3ccccc3)c2c1C(O)c1nc2cc(C#N)ccc2[nH]1` (racemic) [Example 117-F, (±)-2-((5-Ethyl-7-methyl-3-phenyl-1H-indol-4-yl)(hydroxy)methyl)-1H-benzo[d]imidazole-5-carbonitrile]: the IC50 was 70 nM.

For the compound `Cc1cc(C)c2[nH]cc(-c3ccn[nH]3)c2c1C(O)c1nc2cc(C#N)ccc2[nH]1` (racemic) [Example 121-D, (±)-2-((5,7-Dimethyl-3-(1H-pyrazol-5-yl)-1H-indol-4-yl)(hydroxy)methyl)-1H-benzo[d]imidazole-5-carbonitrile], the IC50 came to 480 nM.

Take `COc1cc(C)c2[nH]ccc2c1C(OCC(=O)O)(c1nc2cc(C#N)ccc2o1)C(F)(F)F` (racemic) [Example 129-B, (±)-2-(1-(5-cyanobenzo[d]oxazol-2-yl)-2,2,2-trifluoro-1-(5-methoxy-7-methyl-1H-indol-4-yl)ethoxy)acetic acid]: the concentration for half-maximal inhibition (IC50) came out at 7860 nM.

In the case of `COc1cc(C)c2[nH]ccc2c1C(N)(c1nc2cc(C#N)ccc2o1)C(F)(F)F` (racemic) [Example 130-B, (±)-2-(1-Amino-2,2,2-trifluoro-1-(5-methoxy-7-methyl-1H-indol-4-yl)ethyl)benzo[d]oxazole-5-carbonitrile], the half-inhibitory concentration (IC50) worked out at 20 nM.

For `COc1cc(C)c2[nH]ccc2c1C(O)c1nc2ccc(C#N)cc2s1` (racemic) [Example 132-B, (±)-2-(hydroxy(5-methoxy-7-methyl-1H-indol-4-yl)methyl)benzo[d]thiazole-6-carbonitrile], the IC50 was found to be 70 nM.

For the compound `COc1cc(C)c2[nH]ccc2c1C(O)c1cc2ccc(C#N)cc2o1` (racemic) [Example 133-B, (±)-2-(hydroxy(5-methoxy-7-methyl-1H-indol-4-yl)methyl)benzofuran-6-carbonitrile], the IC50 was 100 nM.

Turning to `COc1cc(C)c2[nH]ccc2c1C(O)c1cc2cc(C#N)ccc2o1` (racemic) [Example 134, (±)-2-(hydroxy(5-methoxy-7-methyl-1H-indol-4-yl)methyl)benzofuran-5-carbonitrile], the IC50 worked out at 90 nM.

`COc1cc(C)c2[nH]ccc2c1C(O)c1cc2ccc(C#N)cc2[nH]1` (racemic) [Example 135-C, (±)-2-(hydroxy(5-methoxy-7-methyl-1H-indol-4-yl)methyl)-1H-indole-6-carbonitrile]: the 50% inhibitory concentration (IC50) amounted to 20 nM.

Regarding `COc1cc(C)c2[nH]ccc2c1C(O)c1cc2cc(C#N)ccc2[nH]1` (racemic) [Example 136, (±)-2-(hydroxy(5-methoxy-7-methyl-1H-indol-4-yl)methyl)-1H-indole-5-carbonitrile], the 50% inhibitory concentration (IC50) came out at 20 nM.

For the compound `Cc1cc(S(C)(=O)=O)c(C(C)(O)c2nc3cc(C#N)ccc3[nH]2)c2cc[nH]c12` (single isomer, unassigned) [11-C b) (tr = 3 min), (+) or (−)-2-(1-hydroxy-1-(7-methyl-5-(methylsulfonyl)-1H-indol-4-yl)ethyl)-1H-benzo[d]imidazole-5-carbonitrile], the IC50 turned out to be 90 nM.

Take `Cc1cc(S(C)(=O)=O)c(C(C)(O)c2nc3cc(C#N)ccc3[nH]2)c2cc[nH]c12` (single isomer, unassigned) [11-C b) (tr = 4.2 min), (−) or (+)-2-(1-hydroxy-1-(7-methyl-5-(methylsulfonyl)-1H-indol-4-yl)ethyl)-1H-benzo[d]imidazole-5-carbonitrile]: the IC50 is 1020 nM.

For `Cc1cc(S(C)(=O)=O)c(C(N)c2nc3cc(C#N)ccc3[nH]2)c2cc[nH]c12` (single isomer, unassigned) [18-D (+), 2-(amino(7-methyl-5-(methylsulfonyl)-1H-indol-4-yl)methyl)-1H-benzo[d]imidazole-5-carbonitrile], the IC50 was 1240 nM.

As for `Cc1cc(S(C)(=O)=O)c(C(N)c2nc3cc(C#N)ccc3[nH]2)c2cc[nH]c12` (single isomer, unassigned) [18-D (−), 2-(amino(7-methyl-5-(methylsulfonyl)-1H-indol-4-yl)methyl)-1H-benzo[d]imidazole-5-carbonitrile], the IC50 was 150 nM.

Turning to `CCOc1cc(C)c2[nH]ccc2c1C(O)(c1nc2cc(C#N)ccc2[nH]1)C(F)(F)F` (single isomer, unassigned) [33-C b) (tr = 3 min), 2-(1-(5-ethoxy-7-methyl-1H-indol-4-yl)-2,2,2-trifluoro-1-hydroxyethyl)-1H-benzo[d]imidazole-5-carbonitrile], the IC50 turned out to be 490 nM.

On to `CCOc1cc(C)c2[nH]ccc2c1C(O)(c1nc2cc(C#N)ccc2[nH]1)C(F)(F)F` (single isomer, unassigned) [33-C b) (tr = 5.1 min), 2-(1-(5-ethoxy-7-methyl-1H-indol-4-yl)-2,2,2-trifluoro-1-hydroxyethyl)-1H-benzo[d]imidazole-5-carbonitrile], for which the concentration for half-maximal inhibition (IC50) was found to be 5380 nM.

`COc1cc(C)c2[nH]ccc2c1C(N)c1nc2cc(C#N)ccc2[nH]1` (single isomer, unassigned) [39-C b) (tr = 24.1 min), (−) or (+)-2-(amino(5-methoxy-7-methyl-1H-indol-4-yl)methyl)-1H-benzo[d]imidazole-5-carbonitrile]: the IC50 was found to be 8 nM.

On to `COc1cc(C)c2[nH]ccc2c1C(N)c1nc2cc(C#N)ccc2[nH]1` (single isomer, unassigned) [39-C b) (tr = 30.6 min), (+) or (−)-2-(amino(5-methoxy-7-methyl-1H-indol-4-yl)methyl)-1H-benzo[d]imidazole-5-carbonitrile], for which the half-maximal inhibitory concentration (IC50) is 190 nM.

`Cc1cc(Br)c(C(C)(O)c2nc3cc(C#N)ccc3[nH]2)c2cc[nH]c12` (single isomer, unassigned) [79-F b) (tr = 2.2 min), (+) or (−)-2-(1-(5-bromo-7-methyl-1H-indol-4-yl)-1-hydroxyethyl)-1H-benzo[d]imidazole-5-carbonitrile]: the IC50 was found to be 60 nM.

Turning to `Cc1cc(Br)c(C(C)(O)c2nc3cc(C#N)ccc3[nH]2)c2cc[nH]c12` (single isomer, unassigned) [79-F b) (tr = 3.8 min), (−) or (+)-2-(1-(5-bromo-7-methyl-1H-indol-4-yl)-1-hydroxyethyl)-1H-benzo[d]imidazole-5-carbonitrile], the IC50 amounted to 270 nM.
